Source: ChEMBL document CHEMBL1275514, “Surveillance of community-based reservoirs reveals the presence of CTX-M, imported AmpC, and OXA-30 beta-lactamases in urine isolates of Klebsiella pneumoniae and Escherichia coli in a U.S. community” (2008)

Assays:
Type in all cases: functional
Klebsiella pneumoniae [1] = assay: Antimicrobial activity against CMY-2,CTX-M-14,TEM-2-like beta-lactamase producing Klebsiella pneumoniae isolate CUMCK2 by disk diffusion method
Escherichia coli [2] = assay: Antimicrobial activity against CMY-2 beta-lactamase producing Escherichia coli isolate CUMC243 by disk diffusion method
Escherichia coli [3] = assay: Antimicrobial activity against CMY-2,CTX-M-14,TEM-2-like beta-lactamase producing Escherichia coli isolate CUMC215 by disk diffusion method
Escherichia coli [4] = assay: Antimicrobial activity against CTX-M-14-like, TEM-1-like beta-lactamase producing Escherichia coli isolate CUMC203 by disk diffusion method
Escherichia coli [5] = assay: Antimicrobial activity against CTX-M-14-like, TEM-1-like beta-lactamase producing Escherichia coli isolate CUMC204 by disk diffusion method
Escherichia coli [6] = assay: Antimicrobial activity against CTX-M-14-like, TEM-1-like beta-lactamase producing Escherichia coli isolate CUMC233 by disk diffusion method
Escherichia coli [7] = assay: Antimicrobial activity against CTX-M-14, TEM-1-like beta-lactamase producing Escherichia coli isolate CUMC241 by disk diffusion method
Escherichia coli [8] = assay: Antimicrobial activity against CTX-M-14, TEM-1-like beta-lactamase producing Escherichia coli isolate CUMC244 by disk diffusion method
Escherichia coli [9] = assay: Antimicrobial activity against CTX-M-14, TEM-1-like beta-lactamase producing Escherichia coli isolate CUMC248 by disk diffusion method
Klebsiella pneumoniae [10] = assay: Antimicrobial activity against SHV-12-like, SHV-1-like beta-lactamase producing Klebsiella pneumoniae isolate CUMCK9 by disk diffusion method
Klebsiella pneumoniae [11] = assay: Antimicrobial activity against CMY-2,CTX-M-14,TEM-2-like beta-lactamase producing Klebsiella pneumoniae isolate CUMCK2 by disk diffusion method in presence of beta-lactamase inhibitor clavulanic acid
Escherichia coli [12] = assay: Antimicrobial activity against CMY-2,CTX-M-14,TEM-2-like beta-lactamase producing Escherichia coli isolate CUMC215 by disk diffusion method in presence of beta-lactamase inhibitor clavulanic acid
Escherichia coli [13] = assay: Antimicrobial activity against CMY-2 beta-lactamase producing Escherichia coli isolate CUMC243 by disk diffusion method in presence of beta-lactamase inhibitor clavulanic acid
Escherichia coli [14] = assay: Antimicrobial activity against CMY-2 beta-lactamase producing Escherichia coli isolate CUMC181 by disk diffusion method in presence of beta-lactamase inhibitor clavulanic acid
Escherichia coli [15] = assay: Antimicrobial activity against CMY-2 beta-lactamase producing Escherichia coli isolate CUMC190 by disk diffusion method in presence of beta-lactamase inhibitor clavulanic acid
Escherichia coli [16] = assay: Antimicrobial activity against CMY-2 beta-lactamase producing Escherichia coli isolate CUMC201 by disk diffusion method in presence of beta-lactamase inhibitor clavulanic acid
Escherichia coli [17] = assay: Antimicrobial activity against CMY-2 beta-lactamase producing Escherichia coli isolate CUMC214 by disk diffusion method in presence of beta-lactamase inhibitor clavulanic acid
Escherichia coli [18] = assay: Antimicrobial activity against CMY-2 beta-lactamase producing Escherichia coli isolate CUMC223 by disk diffusion method in presence of beta-lactamase inhibitor clavulanic acid
Escherichia coli [19] = assay: Antimicrobial activity against CMY-2,TEM-2-like beta-lactamase producing Escherichia coli isolate CUMC224 by disk diffusion method in presence of beta-lactamase inhibitor clavulanic acid
Escherichia coli [20] = assay: Antimicrobial activity against CMY-2 beta-lactamase producing Escherichia coli isolate CUMC225 by disk diffusion method in presence of beta-lactamase inhibitor clavulanic acid
Escherichia coli [21] = assay: Antimicrobial activity against CTX-M-15,OXA-30 beta-lactamase producing Escherichia coli isolate CUMC245 by disk diffusion method in presence of beta-lactamase inhibitor clavulanic acid
Escherichia coli [22] = assay: Antimicrobial activity against CTX-M-14, TEM-1 beta-lactamase producing Escherichia coli isolate CUMC174 by disk diffusion method in presence of beta-lactamase inhibitor clavulanic acid
Escherichia coli [23] = assay: Antimicrobial activity against CTX-M-14, TEM-1-like beta-lactamase producing Escherichia coli isolate CUMC176 by disk diffusion method in presence of beta-lactamase inhibitor clavulanic acid
Escherichia coli [24] = assay: Antimicrobial activity against CTX-M-14, TEM-1-like beta-lactamase producing Escherichia coli isolate CUMC180 by disk diffusion method in presence of beta-lactamase inhibitor clavulanic acid
Escherichia coli [25] = assay: Antimicrobial activity against CTX-M-14-like, TEM-1-like beta-lactamase producing Escherichia coli isolate CUMC192 by disk diffusion method in presence of beta-lactamase inhibitor clavulanic acid
Escherichia coli [26] = assay: Antimicrobial activity against CTX-M-14-like, TEM-1-like beta-lactamase producing Escherichia coli isolate CUMC203 by disk diffusion method in presence of beta-lactamase inhibitor clavulanic acid
Escherichia coli [27] = assay: Antimicrobial activity against CTX-M-14-like, TEM-1-like beta-lactamase producing Escherichia coli isolate CUMC204 by disk diffusion method in presence of beta-lactamase inhibitor clavulanic acid
Escherichia coli [28] = assay: Antimicrobial activity against CTX-M-14-like, TEM-1-like beta-lactamase producing Escherichia coli isolate CUMC233 by disk diffusion method in presence of beta-lactamase inhibitor clavulanic acid
Escherichia coli [29] = assay: Antimicrobial activity against CTX-M-14, TEM-1-like beta-lactamase producing Escherichia coli isolate CUMC241 by disk diffusion method in presence of beta-lactamase inhibitor clavulanic acid
Escherichia coli [30] = assay: Antimicrobial activity against CTX-M-14, TEM-1-like beta-lactamase producing Escherichia coli isolate CUMC244 by disk diffusion method in presence of beta-lactamase inhibitor clavulanic acid
Escherichia coli [31] = assay: Antimicrobial activity against CTX-M-14, TEM-1-like beta-lactamase producing Escherichia coli isolate CUMC248 by disk diffusion method in presence of beta-lactamase inhibitor clavulanic acid
Klebsiella pneumoniae [32] = assay: Antimicrobial activity against SHV-12-like, SHV-1-like beta-lactamase producing Klebsiella pneumoniae isolate CUMCK9 by disk diffusion method in presence of beta-lactamase inhibitor clavulanic acid
Escherichia coli [33] = assay: Antimicrobial activity against CTX-M-14-like, TEM-1-like beta-lactamase producing Escherichia coli isolate CUMC192 by disk diffusion method
Escherichia coli [34] = assay: Antimicrobial activity against CTX-M-14, TEM-1-like beta-lactamase producing Escherichia coli isolate CUMC180 by disk diffusion method
Escherichia coli [35] = assay: Antimicrobial activity against CTX-M-14, TEM-1-like beta-lactamase producing Escherichia coli isolate CUMC176 by disk diffusion method
Escherichia coli [36] = assay: Antimicrobial activity against CTX-M-14, TEM-1 beta-lactamase producing Escherichia coli isolate CUMC174 by disk diffusion method
Escherichia coli [37] = assay: Antimicrobial activity against CTX-M-15,OXA-30 beta-lactamase producing Escherichia coli isolate CUMC245 by disk diffusion method
Escherichia coli [38] = assay: Antimicrobial activity against CMY-2 beta-lactamase producing Escherichia coli isolate CUMC225 by disk diffusion method
Escherichia coli [39] = assay: Antimicrobial activity against CMY-2,TEM-2-like beta-lactamase producing Escherichia coli isolate CUMC224 by disk diffusion method
Escherichia coli [40] = assay: Antimicrobial activity against CMY-2 beta-lactamase producing Escherichia coli isolate CUMC223 by disk diffusion method
Escherichia coli [41] = assay: Antimicrobial activity against CMY-2 beta-lactamase producing Escherichia coli isolate CUMC214 by disk diffusion method
Escherichia coli [42] = assay: Antimicrobial activity against CMY-2 beta-lactamase producing Escherichia coli isolate CUMC201 by disk diffusion method
Escherichia coli [43] = assay: Antimicrobial activity against CMY-2 beta-lactamase producing Escherichia coli isolate CUMC190 by disk diffusion method
Escherichia coli [44] = assay: Antimicrobial activity against CMY-2 beta-lactamase producing Escherichia coli isolate CUMC181 by disk diffusion method

## CO/N=C(\C(=O)N[C@@H]1C(=O)N2C(C(=O)O)=C(COC(C)=O)CS[C@H]12)c1csc(N)n1 [CEFOTAXIME]
Klebsiella pneumoniae [1]
  inhibition zone (IZ): 11 mm
Escherichia coli [2]
  inhibition zone (IZ): 11 mm
Escherichia coli [3]
  inhibition zone (IZ): 7 mm
Escherichia coli [4]
  inhibition zone (IZ): 17 mm
Escherichia coli [5]
  inhibition zone (IZ): 15 mm
Escherichia coli [6]
  inhibition zone (IZ): 18 mm
Escherichia coli [7]
  inhibition zone (IZ): 13 mm
Escherichia coli [8]
  inhibition zone (IZ): 14 mm
Escherichia coli [9]
  inhibition zone (IZ): 12 mm
Klebsiella pneumoniae [10]
  inhibition zone (IZ): 18 mm
Klebsiella pneumoniae [11]
  inhibition zone (IZ): 16 mm
Escherichia coli [12]
  inhibition zone (IZ): 8 mm
Escherichia coli [13]
  inhibition zone (IZ): 12 mm
Escherichia coli [14]
  inhibition zone (IZ): 13 mm
Escherichia coli [15]
  inhibition zone (IZ): 11 mm
Escherichia coli [16]
  inhibition zone (IZ): 10 mm
Escherichia coli [17]
  inhibition zone (IZ): 12 mm
Escherichia coli [18]
  inhibition zone (IZ): 13 mm
Escherichia coli [19]
  inhibition zone (IZ): 12 mm
Escherichia coli [20]
  inhibition zone (IZ): 11 mm
Escherichia coli [21]
  inhibition zone (IZ): 30 mm
Escherichia coli [22]
  inhibition zone (IZ): 30 mm
Escherichia coli [23]
  inhibition zone (IZ): 31 mm
Escherichia coli [24]
  inhibition zone (IZ): 30 mm
Escherichia coli [25]
  inhibition zone (IZ): 30 mm
Escherichia coli [26]
  inhibition zone (IZ): 32 mm
Escherichia coli [27]
  inhibition zone (IZ): 30 mm
Escherichia coli [28]
  inhibition zone (IZ): 32 mm
Escherichia coli [29]
  inhibition zone (IZ): 30 mm
Escherichia coli [30]
  inhibition zone (IZ): 29 mm
Escherichia coli [31]
  inhibition zone (IZ): 28 mm
Klebsiella pneumoniae [32]
  inhibition zone (IZ): 32 mm
Escherichia coli [33]
  inhibition zone (IZ): 15 mm
Escherichia coli [34]
  inhibition zone (IZ): 17 mm
Escherichia coli [35]
  inhibition zone (IZ): 17 mm
Escherichia coli [36]
  inhibition zone (IZ): 16 mm
Escherichia coli [37]
  inhibition zone (IZ): 6 mm
Escherichia coli [38]
  inhibition zone (IZ): 11 mm
Escherichia coli [39]
  inhibition zone (IZ): 15 mm
Escherichia coli [40]
  inhibition zone (IZ): 13 mm
Escherichia coli [41]
  inhibition zone (IZ): 13 mm
Escherichia coli [42]
  inhibition zone (IZ): 12 mm
Escherichia coli [43]
  inhibition zone (IZ): 6 mm
Escherichia coli [44]
  inhibition zone (IZ): 13 mm

## CC(C)(O/N=C(\C(=O)N[C@@H]1C(=O)N2C(C(=O)[O-])=C(C[n+]3ccccc3)CS[C@H]12)c1csc(N)n1)C(=O)O [CEFTAZIDIME]
Klebsiella pneumoniae [1]
  inhibition zone (IZ): 8 mm
Escherichia coli [2]
  inhibition zone (IZ): 7 mm
Escherichia coli [3]
  inhibition zone (IZ): 6 mm
Escherichia coli [4]
  inhibition zone (IZ): 28 mm
Escherichia coli [5]
  inhibition zone (IZ): 27 mm
Escherichia coli [6]
  inhibition zone (IZ): 31 mm
Escherichia coli [7]
  inhibition zone (IZ): 28 mm
Escherichia coli [8]
  inhibition zone (IZ): 26 mm
Escherichia coli [9]
  inhibition zone (IZ): 25 mm
Klebsiella pneumoniae [10]
  inhibition zone (IZ): 6 mm
Klebsiella pneumoniae [11]
  inhibition zone (IZ): 12 mm
Escherichia coli [12]
  inhibition zone (IZ): 7 mm
Escherichia coli [13]
  inhibition zone (IZ): 12 mm
Escherichia coli [14]
  inhibition zone (IZ): 14 mm
Escherichia coli [15]
  inhibition zone (IZ): 13 mm
Escherichia coli [16]
  inhibition zone (IZ): 12 mm
Escherichia coli [17]
  inhibition zone (IZ): 13 mm
Escherichia coli [18]
  inhibition zone (IZ): 13 mm
Escherichia coli [19]
  inhibition zone (IZ): 13 mm
Escherichia coli [20]
  inhibition zone (IZ): 11 mm
Escherichia coli [21]
  inhibition zone (IZ): 29 mm
Escherichia coli [22]
  inhibition zone (IZ): 30 mm
Escherichia coli [23]
  inhibition zone (IZ): 33 mm
Escherichia coli [24]
  inhibition zone (IZ): 31 mm
Escherichia coli [25]
  inhibition zone (IZ): 30 mm
Escherichia coli [26]
  inhibition zone (IZ): 29 mm
Escherichia coli [27]
  inhibition zone (IZ): 30 mm
Escherichia coli [28]
  inhibition zone (IZ): 32 mm
Escherichia coli [29]
  inhibition zone (IZ): 32 mm
Escherichia coli [30]
  inhibition zone (IZ): 29 mm
Escherichia coli [31]
  inhibition zone (IZ): 29 mm
Klebsiella pneumoniae [32]
  inhibition zone (IZ): 26 mm
Escherichia coli [33]
  inhibition zone (IZ): 28 mm
Escherichia coli [34]
  inhibition zone (IZ): 29 mm
Escherichia coli [35]
  inhibition zone (IZ): 30 mm
Escherichia coli [36]
  inhibition zone (IZ): 27 mm
Escherichia coli [37]
  inhibition zone (IZ): 16 mm
Escherichia coli [38]
  inhibition zone (IZ): 6 mm
Escherichia coli [39]
  inhibition zone (IZ): 7 mm
Escherichia coli [40]
  inhibition zone (IZ): 6 mm
Escherichia coli [41]
  inhibition zone (IZ): 8 mm
Escherichia coli [42]
  inhibition zone (IZ): 8 mm
Escherichia coli [43]
  inhibition zone (IZ): 8 mm
Escherichia coli [44]
  inhibition zone (IZ): 6 mm
